In test [1] the test system is Herpes simplex virus type-2 (HSV-2). Briefly: Inhibition of HSV-2 (plaque assay; Calu-6 infected, RITA cells for plaques). In kind it is cell-based. The protocol: Calu-6 cells and RITA cells were grown in DMEM cell culture medium containing 10% fetal calf serum in CO2 incubator under 5% CO2 at 37° C. with 100% humidity.
For HSV-2 inhibition, Calu-6 cells were seeded in 96 well plates at a density of 3×10^6 cells per plate in the DMEM cell culture medium. The plates were incubated at 37° C. in the presence of 5% CO2 for 24 hr. The DMEM cell culture medium in the plates was removed and the cells were infected with Herpes simplex virus type-2 at 50 plaque forming units per well. After incubation at 37° C. for 60 min, test compounds in DMEM cell culture medium at a series of concentrations were added. The plates were incubated at 37° C. in the presence of 5% CO2 for 48 hr. The plates were frozen at −20° C. prior to further analysis. After thawing at room temperature, supernatants containing infectious virus particles were prepared by centrifuging the supernatant from each well at 18,000 g at 4° C. for 5 min. The supernatant was further diluted before assay.
RITA cells were seeded in 24 well Linbra plates at a density of 4×10^6 cells per plate in 2 mL of DMEM cell culture medium. The plates were incubated at 37° C. in the presence of 5% CO2 for 24 hr. After the removal of the cell culture medium, 0.1 mL of the diluted supernatants was added and the plates were incubated at 37 C for 1 hr. DMEM cell medium containing 10% fetal calf serum and 0.5% methyl cellulose was added and the plates were incubated at 37 for 48 hr. The plates were then washed with PBS, fixed with 3% formaldehyde solution containing 0.9% NaCl for 1 min, washed by water for 10 sec, and dried overnight. For detection, the plates were then stained with crystal violet solution for 5 min at room temperature, washed 5 times with water, and dried at room temperature overnight. The number of plaques was determined macroscopically. The number of plaques per well was then multiplied with the dilution factor. Dose response curves were obtained by plotting the number of plaques/0.1 mL against compound concentration. The therapeutic index was also calculated for each compound by dividing LD50 with IC50.

For the next test, the system named is CIN 612 9E cells. Nature of the test: Long-term study, cell morphology. Type of test: cell-based, human papilloma virus. Conditions: 10 μg/mL, after five passages. The protocol: HPV-31 infected cells (3×10^6) were dispensed into 14.5 cm dishes containing fresh E medium and 1×10^6 cells of mitomycin C-treated 3T3 fibroblast feeders. The dishes were incubated in a CO2 incubator under 5% CO2 at 37° C. in 100% humidity. Human A431 epithelial cancer cells were used as HPV-uninfected negative controls. After 6 hr incubation, the cell culture medium was removed and fresh E medium containing 0.85 g/L NaHCO3 and a test compound at concentrations of 10 and 3.3 μg/mL, or control (interferon γ at 200 IU/mL) were added. For each concentration, 4 dishes were prepared. The dishes were incubated at 37° C. in a CO2 incubator. The culture medium was replaced to new E medium containing each concentration of the test compound or control in every 72 hrs. After seven days, or when untreated cells became confluent, one dish of each group was harvested for DNA/RNA extraction, followed by Southern/Northern Blot analysis; and one dish was trypsinized, cell number were determined and cells were seeded in three new dishes, treated and cultured as described above. This procedure was repeated for 9 passages. During these passages, morphology of cells and cell density were monitored.

Test [2] has as its system HPV-31-infected CIN612 9E keratinocytes. Nature of the test: Short-term study, effect on cell proliferation of HPV-31-infected keratinocytes. Conditions: Human papillomavirus, Keratinocyte; 72 hrs, 37° C.; 50% of uninhibited growth. Type of test: cell-based, human papilloma virus. The protocol: The inhibitory activities of optically active (−)-enantiomer 1A against human papilloma virus were evaluated using HPV-31-infected CIN612 9E keratinocytes (Meyers et al., Science 1992, 257, 971-973).
Effect on cell proliferation. HPV-31 infected cells were seeded in 96-well plates containing 1×10^6 mitomycin C treated 3T3 cells (1×10^4 cells/well), at a density of 0.5×10^6 cells per plate (0.5×10^4 cells/well) in E medium. After the plates were incubated in a CO2 incubator under 5% CO2 at 37° C. in 100% humidity for six hrs, the cell culture medium was removed and fresh E medium containing 0.85 g/L NaHCO3 and a test compound at a series of concentrations (0, 0.5, 1, 2, 4, 8, 16, 32, 64, and 128 μg/mL), or positive control (interferon γ at 200 IU/mL) was added. […] After the plates were dried on blotting paper upside down overnight, 0.1 mL of ethanol/acetic acid (99:1) was added to each well and optical density at 595 nm was determined in an ELISA reader.
Dose response curves were established by plotting growth against concentrations of the test compound or control. ICso values were determined from the dose response curves from crossing points of the dose response curves with a line parallel to the x-axis corresponding to 50% of uninhibited growth.

Another test deals with actin specific RNA. Briefly: Short-term study, effect on control RNA expression. Type of test: cell-based. As to conditions: 0-32 μg/mL, 72 hrs. The protocol:
Effect on HPV-31 specific DNA and RNA. HPV-31 infected cells (3×10^6) were dispensed into 14.5 cm dishes containing fresh E culture medium and 1×10^6 mitomycin C-treated J2 3T3 fibroblast feeders. After 6 hrs, fresh medium containing 0.85 g/L NaHCO3 and a test compound at a series of concentrations (0, 0.5, 1, 2, 4, 8, 16, and 32 μg/mL) were added. All samples were tested in duplicates at each concentration. After incubation at 37° C. for 72 hrs, the feeder cells were removed with 4 mM EDTA, and DNA and RNA was then isolated. The isolated DNA and RNA were analyzed in Southern and Northern Blot gels for HPV-31 specific sequences. Human A431 epithelial cancer cells were used as HPV-uninfected negative control. X-ray films were scanned and optical densities of HPV-31 specific DNA and major mRNA species were integrated.
Dose response curves were established by plotting integrated values against the concentrations of the test compound.

Converted amounts (≈) assume the structure as drawn. “Also recorded” adds a separate entry of the source.

`S=C(S)OC1CC2CC1C1CCCC21` (single isomer, unassigned; (-)) [(−)-Enantiomer 1A, (−)-O-exo/C-exo-tricyclo[5.2.1.0^2,6]-dec-9-yl-xanthic acid] gave an IC50 in test [1] (Calu-6 cells, 48 hr, 50 plaque forming units per well) of 9.08 ± 3.40 µg/mL (≈ 39.8 µM). Moreover, the “Therapeutic Index” value in test [1] (LD50 (Calu-6) divided by IC50 (HSV-2), 2880 min) turned out to be 10.4. For the same compound, in the test with CIN 612 9E cells, the morphology of cells entry was “notable change in the morphology; also recorded: growing more organized like untransformed keratinocytes; also recorded: contact inhibited when cultures grew to confluency; also recorded: acquired a flat round shape”. For the same compound, the concentration for a half-maximal effect (EC50) in test [2] turned out to be 16 µg/mL (≈ 70.1 µM). Besides, in the test on actin specific RNA, the “expression of the control RNA (actin specific RNA)” value is given as “only affected at the highest concentration of 32 μg/mL”.

The term IC50 denotes the concentration that inhibits the measured activity by half. A word on the EC50: it is the concentration at which the effect is half-maximal. Low values mean greater potency, high ones weaker potency.

These data come from US20100240746A1, “STEREOISOMERS OF TRICYCLODECAN-9-YL-XANTHOGENATE” (LUMAVITA AG, priority 2007, published 2010).
